Data from patent publication EP4722219A1 (Gan & Lee Pharmaceuticals Co., Ltd., priority 2023, dated 2024).

Legend:
LNCaP cells = assay: Inhibition of LNCaP cell proliferation (WST-8); format: cell-based; settings: LNCaP FGC cells, 96 hours
Outline: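 Cells were seeded and cultured overnight at 37 °C, 5% CO2, then exposed for 96 h to compound at 9 concentrations, 5-fold serial dilution from 10 µM final. Viability was read by WST-8 absorbance at 450 nm.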

AR protein = molecular target: T1, AR protein (Homo sapiens, UniProt P10275, T878A); assay: AR protein degradation in LNCaP cells (Western blot); format: cell-based; settings: 8 hours; for percent AR protein degradation at a fixed concentration at 0.01 µM / Degradation of AR protein in LNCaP cells, 10 nM (%): 10 nM; for percent AR protein degradation at a fixed concentration at 0.1 µM / Degradation of AR protein in LNCaP cells, 100 nM (%): 100 nM
T1 construct: host or cells: LNCaP FGC
T1 sequence (P10275 1-920 T878A): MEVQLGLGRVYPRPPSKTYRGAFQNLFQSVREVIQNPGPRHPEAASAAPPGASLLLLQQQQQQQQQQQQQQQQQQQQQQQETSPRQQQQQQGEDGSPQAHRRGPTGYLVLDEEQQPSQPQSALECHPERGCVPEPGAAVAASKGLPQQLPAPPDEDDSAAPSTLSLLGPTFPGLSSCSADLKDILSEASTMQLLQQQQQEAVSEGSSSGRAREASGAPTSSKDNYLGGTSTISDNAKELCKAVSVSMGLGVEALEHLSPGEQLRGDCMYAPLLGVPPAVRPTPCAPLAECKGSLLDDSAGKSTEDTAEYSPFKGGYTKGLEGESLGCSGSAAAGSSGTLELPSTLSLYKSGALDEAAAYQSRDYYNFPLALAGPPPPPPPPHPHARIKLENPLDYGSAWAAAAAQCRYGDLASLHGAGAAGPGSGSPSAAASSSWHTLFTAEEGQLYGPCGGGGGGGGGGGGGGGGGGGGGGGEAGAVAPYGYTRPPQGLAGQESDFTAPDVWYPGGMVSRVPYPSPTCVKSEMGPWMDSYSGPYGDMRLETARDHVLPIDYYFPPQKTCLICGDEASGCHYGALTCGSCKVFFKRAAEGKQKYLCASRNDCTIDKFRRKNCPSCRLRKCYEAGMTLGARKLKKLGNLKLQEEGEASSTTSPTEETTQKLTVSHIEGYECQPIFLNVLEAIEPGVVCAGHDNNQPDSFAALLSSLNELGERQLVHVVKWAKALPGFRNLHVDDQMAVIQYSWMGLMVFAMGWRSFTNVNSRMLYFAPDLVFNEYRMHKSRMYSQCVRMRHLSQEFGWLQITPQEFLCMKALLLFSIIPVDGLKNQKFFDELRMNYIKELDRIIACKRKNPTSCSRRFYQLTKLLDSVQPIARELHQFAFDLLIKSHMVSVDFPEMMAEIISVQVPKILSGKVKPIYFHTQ
Outline: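 LNCaP cells exposed to compound or solvent control for 8 h, lysed in RIPA, protein normalized by BCA. AR detected by SDS-PAGE/Western blot with infrared imaging; band grayscale normalized to GAPDH to calculate AR degradation rate.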

Degradation of AR protein in LNCaP cells, 10 nM (%) (AR protein)	Degradation of AR protein in LNCaP cells, 100 nM (%) (AR protein)	Compound	IC50 (LNCaP cells; Homo sapiens)	percent AR protein degradation at a fixed concentration at 0.01 µM (AR protein)	percent AR protein degradation at a fixed concentration at 0.1 µM (AR protein)	IC50 (LNCaP cells)
–	–	Cn1c(=O)n(C2CCC(=O)NC2=O)c2ccc3c(c21)OCC31CCN(C2CC3(CCN(c4ccc(C(=O)N[C@H]5CC[C@H](Oc6ccc(C#N)c(Cl)c6)CC5)nn4)CC3)C2)CC1 (stereo partly drawn) [A-P-25]	47.7 µM	58%	31%	–
–	–	Cn1c(=O)n(C2CCC(=O)NC2=O)c2cc3c(cc21)C1(CCN(CC2CCN(c4ccc(C(=O)N[C@H]5CC[C@H](Oc6ccc(C#N)c(Cl)c6)CC5)nn4)CC2)CC1)CO3 (stereo partly drawn) [A-P-10]	137 µM	47%	5%	–
–	–	Cn1c(=O)n(C2CCC(=O)NC2=O)c2ccc3c(c21)OCC31CCN(C2CCN(c3ccc(C(=O)N[C@H]4CC[C@H](Oc5ccc(C#N)c(Cl)c5)CC4)nn3)CC2)CC1 (stereo partly drawn) [A-P-23]	22.4 µM	37%	14%	–
43%	62%	COc1cc(O[C@H]2C(C)(C)[C@H](NC(=O)c3ccc(N4CCC(F)(CN5CC6(CCC7(CC6)COc6c7ccc7c6CN(C6CCC(=O)NC6=O)C7=O)C5)CC4)cc3)C2(C)C)ccc1C#N (relative stereo) [A-P-5]	1 µM	–	–	–
12%	46%	N-(1r,4r)-4-(3-chloro-4-cyanophenoxy)cyclohexy 1)-6-(4-(7-(2,6-dioxopiperidin-3-yl))-6-oxo-7,8-dihydro-2H,6H-dipyrido[2,3-e]isoindole-3,1'-cyclohexane-4',4‴-piperidin]-1"-yl)pyridazine-3-carboxamide [A-P-32]	–	–	–	0.57 µM
–	–	Cn1c(=O)n(C2CCC(=O)NC2=O)c2ccc3c(c21)OCC31CCN(CC2CCN(c3ccc(C(=O)N[C@H]4CC[C@H](Oc5ccc(C#N)c(Cl)c5)CC4)nn3)CC2)CC1 (stereo partly drawn) [A-P-24]	22.8 µM	49%	29%	–
55%	85%	COc1cc(O[C@H]2C(C)(C)[C@H](NC(=O)c3ccc(N4CCC(CN5CCN6c7ccc(C(=O)N[C@H]8CCC(=O)NC8=O)cc7OC[C@@H]6C5)CC4)cc3)C2(C)C)ccc1C#N [A-P-67]	7.22 µM	–	–	–
-2%	0%	COc1cc(O[C@H]2C(C)(C)[C@H](NC(=O)c3ccc(N4CCC(C)(CN5CCC6(CCc7cc(F)c(C(=O)N[C@H]8CCC(=O)NC8=O)cc7O6)CC5)CC4)cc3)C2(C)C)ccc1C#N [A-P-38, 1-(1-(4-((1R,3R)-3-((4-cyano-3-methoxyphenoxy)-2,2,4,4-tetramethylcyclobutyl)carbamoyl)phenyl)-4-methylpiperidin-4-methyl)-N-((S)-2,6-dioxopiperidin-3-yl)-6-fluorospiro[chroman-2,4'-piperidin]-7-carboxamide]	1.49 µM	–	–	–
-37%	-31%	COc1cc(O[C@H]2C(C)(C)[C@H](NC(=O)c3ccc(N4CCC(F)(CN5CCC6(CCc7cc(F)c(C(=O)N[C@H]8CCC(=O)NC8=O)cc7O6)CC5)CC4)cc3)C2(C)C)ccc1C#N [A-P-41]	18.6 µM	–	–	–
48%	62%	COc1cc(O[C@H]2C(C)(C)[C@H](NC(=O)c3ccc(N4CCC(C)(CN5CCC6(CCc7cc(C(=O)N[C@H]8CCC(=O)NC8=O)c(F)cc7O6)CC5)CC4)nc3)C2(C)C)ccc1C#N [A-P-49, 1'-((1-(5-(((1R,3R)-3-(4-cyano-3-methoxyphenoxy)-2,2,4,4-tetramethylcyclobutyl)carbamoyl)pyridin-2-yl)-4-methylpiperidin-4-yl)methyl)-N-((S)-2,6-dioxopiperidin-3-yl)-7-fluorospiro[chroman-2,4'-piperidin]-6-carboxamide]	0.6 µM	–	–	–
–	–	COc1cc(O[C@H]2C(C)(C)[C@H](NC(=O)c3ccc(N4CCC(N5CCC6(CC5)COc5c6ccc6c5n(C)c(=O)n6C5CCC(=O)NC5=O)CC4)cc3)C2(C)C)ccc1C#N (stereo partly drawn) [A-P-29]	15.1 µM	6%	-27%	–
1%	48%	COc1cc(O[C@H]2C(C)(C)[C@H](NC(=O)c3ccc(N4CCC(CN5CCN6c7ccc(N[C@H]8CCC(=O)NC8=O)cc7OC[C@@H]6C5)CC4)cc3)C2(C)C)ccc1C#N [A-P-100]	0.38 µM	–	–	–
73%	91%	CC1(C)[C@H](NC(=O)c2ccc(N3CCC(CN4CCC5(CCc6cc(C(=O)N[C@H]7CCC(=O)NC7=O)c(F)cc6O5)CC4)CC3)nc2)C(C)(C)[C@H]1Oc1ccc(C#N)c(Cl)c1 [A-P-50, 1'-((1-(5-(((1R,3R)-3-(3-chloro-4-cyanophenoxy)-2,2,4,4-tetramethylcyclobutyl)carbamoyl)pyridin-2-yl)piperidin-4-yl)methyl)-N-((S)-2,6-dioxopiperidin-3-yl)-7-fluorospiro[chroman-2,4'-piperidin]-6-carboxamide]	0.18 µM	–	–	–
52%	70%	COc1cc(O[C@H]2C(C)(C)[C@H](NC(=O)c3ccc(N4CCC(CN5CCC6(CCc7cc(C(=O)N[C@H]8CCC(=O)NC8=O)c(F)cc7O6)CC5)(OC)CC4)cc3)C2(C)C)ccc1C#N [A-P-36]	0.82 µM	–	–	–

Compound	Degradation of AR protein in LNCaP cells, 10 nM (%) (AR protein)	Degradation of AR protein in LNCaP cells, 100 nM (%) (AR protein)	IC50 (LNCaP cells; Homo sapiens)	percent AR protein degradation at a fixed concentration at 0.01 µM (AR protein)	percent AR protein degradation at a fixed concentration at 0.1 µM (AR protein)	IC50 (LNCaP cells)
Cn1c(=O)n(C2CCC(=O)NC2=O)c2cc3c(cc21)C1(CCN(C2CC4(CCN(c5ccc(C(=O)N[C@H]6CC[C@H](Oc7ccc(C#N)c(Cl)c7)CC6)nn5)CC4)C2)CC1)CO3 (relative stereo) [A-P-12, N-((1r,4r)-4-(3-chloro-4-cyanophenoxy)cyclohexy 1)-6-(2-(3-(2,6-dioxopiperidin-3-yl)-1-methyl-2-oxo-2,3-dihydro-1H,6H-spiro[benzofuro[5,6-d]imidazole-7,4'-piperidin]-1'-yl)-7-azaspiro[3.5]nonan-7-yl)pyridazine-3-carboxamide]	56%	9%	8.11 µM	–	–	–
C[C@H]1CC2(CCN(c3ccc(C(=O)N4CCC(CN5CCN6c7ccc(C(=O)N[C@H]8CCC(=O)NC8=O)cc7OC[C@@H]6C5)CC4)cc3)CC2)CN1c1ccc(C#N)c(Cl)c1 [A-P-69]	52%	79%	0.28 µM	–	–	–
(S)-3-((1-(4-(((S)-2-(3-chloro-4-cyanophenyl)-3-methyl-2,8-diazaspiro[4.5]decan-8-yl)phenyl)piperidin-4-yl)methyl)-N-(((S)-2,6-dioxopiperidin-3-yl)-1,2,3,4,4a,5-hexahydrobenzo[b]pyrazi no[1,2-d][1,4]oxazine-8-carboxamide [A-P-57]	39%	76%	–	–	–	0.67 µM
C[C@H]1CC2(CCN(c3ccc(C(=O)N4CCC(CN5CCN6c7ccc(C(=O)N[C@H]8CCC(=O)NC8=O)cc7OC[C@H]6C5)CC4)cc3)CC2)CN1c1ccc(C#N)c(Cl)c1 [A-P-68]	51%	84%	0.97 µM	–	–	–
COc1cc(O[C@H]2C(C)(C)[C@H](NC(=O)c3ccc(N4CCC5(CC4)CC(N4CCC6(CC4)COc4cc7c(cc46)n(C)c(=O)n7C4CCC(=O)NC4=O)C5)nn3)C2(C)C)ccc1C#N (relative stereo) [A-P-14, N-((1r,3r)-3-(4-cyano-3-methoxyphenoxy)-2,2,4,4-tetramethylcyclobutyl)-6-(2-(3-(2,6-dioxopiperidin-3-yl)-1-methyl-2-oxo-2,3-dihydro-1H,6H-spiro[benzofuro[5,6-d]imidazole-7,4'-piperidin]-1'-yl)-7-azaspiro[3.5]nonan-7-yl)pyridazine-3-carboxamide]	36%	32%	1.1 µM	–	–	–
(R)-3-((1-(4-(((S)-2-(3-chloro-4-cyanophenyl)-3-methyl-2,8-diazaspiro[4.5]decan-8-yl)phenyl)piperidin-4-yl)methyl)-N-(((S)-2,6-dioxopiperidin-3-yl)-1,2,3,4,4a,5-hexahydrobenzo[b]pyrazi no[1,2-d][1,4]oxazine-8-carboxamide [A-P-58]	63%	87%	–	–	–	0.51 µM
